Test results taken from article PMC10315211 (Molecular microbiology, 2023).

Target: Rv0805 (N-His-Rv0805) (Mycobacterium tuberculosis, UniProt P9WP65)
Sequence (P9WP65 whole entry): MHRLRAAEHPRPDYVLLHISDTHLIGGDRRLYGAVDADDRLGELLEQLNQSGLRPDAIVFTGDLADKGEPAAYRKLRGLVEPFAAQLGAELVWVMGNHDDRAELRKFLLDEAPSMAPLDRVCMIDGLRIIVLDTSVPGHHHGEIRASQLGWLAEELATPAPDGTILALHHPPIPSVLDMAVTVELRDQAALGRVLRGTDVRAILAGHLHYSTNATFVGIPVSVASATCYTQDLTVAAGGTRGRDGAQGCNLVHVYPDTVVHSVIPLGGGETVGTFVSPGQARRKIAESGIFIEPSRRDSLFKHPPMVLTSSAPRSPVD

C[N+](C)(C)CCOP(=O)([O-])OC[C@H](O)CO [glycerophosphocholine]
choline oxidase / HRP coupled Amplex Red fluorometric assay: both Rv0805 and CpdAEc produced choline and Gly3P from glycerophosphocholine (GPC)
